Patent US20190254299A1, “METHODS OF HANDLING AVOCADOS AND SYSTEM” (AGROFRESH INC., priority 2012, published 2019)

Tests used:
Format in all cases: in vivo
avocados [1] = assay: RipeLock applications, Example 7; details: FIG. 5, firmness
Description: Avocados are harvested, handled, and tested as in previous examples. Control samples have no bag and no SmartFresh (1-methylcyclopropene or 1-MCP) application. SmartFresh samples have no bags hut with 600 ppb SmartFresh (1-methylcyclopropene or 1-MCP) application. MAP samples use the 31b MAP bags but no SmartFresh (1-methylcyclopropene or 1-MCP) application. RipeLock 300 samples have the 31b MAP bags with 300 ppb SmartFresh (1-methylcyclopropene or 1-MCP) application. RipeLock 600 samples have the 31b MAP bags with 600 ppb SmartFresh (1-methylcyclopropene or 1-MCP) application. RipeLock 900 samples have the 31b MAP bags with 900 ppb SmartFresh (1-methylcyclopropene or 1-MCP) application. Average fruit in each sample is about 3.81b.
Oxygen (O2) concentrations of samples tested are shown in FIG. 1, and carbon dioxide (CO2) concentrations of samples tested are shown in FIG. 2.

avocados [2] = assay: Skin color rating, ethylene-treated fruit, Example 6; set-up: key to Skin Color ratings: 1 = full green to 5 = purple-black; details: for Skin Color ratings: ethylene-treated, 900 ppb MCP
Description: Avocado skin color was rated using the following scale: • 1=full green • 2=green with traces of brown • 3=half green and half brown • 4=brown with traces of green • 5=purple-black
(§1) Avocados were harvested, handled, and tested as in Example 1. Fruits were placed into MAP bags or else into “Poly bags” (plastic bags having more than 10 holes per bag, with each hole larger than 1 cm in diameter).
(§2) Three fruits (approximately 1.8 kg of fruit) were placed in each bag. After placement into bags, fruit was exposed to ethylene (200 ppm for 24 hours at 22° C.). Then, the fruit was exposed to 1-MCP (900 ppb for 15 hours at 22° C.).

avocados [3] = assay: Pulp firmness, ethylene-treated fruit, Example 6; details: for Pulp Firmness Difference from the Control Sample: ethylene-treated, 900 ppb MCP, control Poly bag, 0 MCP
Description: (§3) As used herein, the “pulp firmness” of an avocado is measured using a penetrometer (Fruit Test™ FT40 penetrometer, from Wagner Instruments) having a plunger diameter of 8 mm Performing the test for pulp firmness destroys the avocado that is tested. When avocados are said herein to be treated in a certain way (e.g., harvested, shipped, exposed to a cyclopropene compound, etc.) when they have a certain specified pulp firmness, it is meant that, out of a group of avocados that have been harvested and treated as uniformly as reasonably possible, a sample of a relatively small number of avocados is removed and tested for pulp firmness. The large group of avocados is considered to have the pulp firmness that is the average value of the tests performed on the relatively small sample.
(§4) Pulp firmness was evaluated by peeling open 4 cm^2 of the avocado's peel using a fruit peeler provided with the penetrometer. The penetrometer was mounted on a manual stand with a lever to deliver unifoim force throughout the test. The avocado was placed with the peeled surface beneath the penetrometer tip with probe diameter of 8 mm, and the force required to punch through the pulp was measured. Each fruit was tested in 3 places.
as §1, §2

avocados [4] = assay: Pulp firmness by penetrometer, Example 1 (California)
Description: as §3, §4
Avocados were harvested in Oxnard, Calif., USA and packed in cardboard boxes and shipped to Sacramento, Calif, USA. After 2 days of transportation part of the avocados were packed in MAP bags. The appropriate weight of avocados was placed in each bag after harvest and shipment. Bags were placed in RPC (Recycle Plastic Container) carrying devices. Avocados then were stored at room temperature (22° C.).
The Test Protocol that was used was as follows. 60 MAP bags were packed. Each hag held approximately 1.7 kg (3.8 lb) of avocados. Three such bags were packed in each RPC. Total weight of avocados in MAP bags was approximately 102 kg. Approximately 51 kg of avocados were placed into RPC identical to those used for the MAP bags. The MAP-packaged avocados were packaged as follows: Nine fruits, approximately 1.7 kg (3.8 lb) were carefully placed into MAP bags, and the bags were sealed by twisting the open side of the bag, folding down the twisted end, and placing a rubber band around the twisted and folded end of the bag.
Avocados were harvested with a very high firmness (not possible to measure with FTA Machines (Firmness Texture Analyzer)). The FTA higher limit was 156 N (351 bf). To monitor the ripening process of the avocados, extra fruits were bagged in MAP bags and the firmness was monitored every day, twice a day until the fruits achieve an average firmness of 111 N (25 lbf). All avocados were kept at room temperature (22° C.) until achieving an average firmness of 111 N (251 bf).
After achieving an average firmness of 111 N (25 lbf) the avocados were randomly divided into treatment sets as follows:
On the same day the avocados achieved 111 N (25 lbf) of average firmness, each treatment set was marked, placed in a hermetical chamber at room temperature (22° C.). All chambers were of equal size and packed the same way. Treatment was for 12 hr. In the chambers for the 3 “MCP” treatment groups, at the beginning of the treatment period, SmartFresh™ SmartTabs™ tablets (AgroFresh, Inc.) were placed in the chamber. The amount of SmartFresh™ SmartTabs™ tablets was chosen to achieve the indicated concentration of 1-methylcyclopropene in the atmosphere of the chamber. The SmartTabs™ tablets were contacted with water in the normal way to release 1-MCP.
After the treatment in the chambers, the RPCs were moved into racks at room temperature for storage and observation. Avocados remained in the same bags throughout the packing, treatment in the chamber, and subsequent storage. Evaluation for skin color and pulp firmness was as follows. Day “zero” was the day the avocados were removed from the chamber and placed in storage. Each test result was the average of 12 fruits.

For CC1=CC1 [MCP, 1-methylcyclopropene], the “combined effect of MAP bags and SmartFresh application” value (avocados [1]) was “synergistic effect”, the “skin color compared with other treatments” value (avocados [2]; MAP bags and 900 ppb of 1-MCP, days 1, 2, and 3) was “best skin color” and the “Skin Color ratings” value (avocados [2]; MAP bag, day 0) was 2.1. For the same compound, the “Skin Color ratings” value (avocados [2]; MAP bag, day 1) was 3.0, the “Skin Color ratings” value (avocados [2]; MAP bag, day 2) was 3.3 and the “Skin Color ratings” value (avocados [2]; MAP bag, day 3) was 3.4. For the same compound, the “Skin Color ratings” value (avocados [2]; MAP bag, day 4) was 4.4, the “Skin Color ratings” value (avocados [2]; Poly bag, day 0) was 4.1 and the “Skin Color ratings” value (avocados [2]; Poly bag, day 1) was 4.9. The “Skin Color ratings” value (avocados [2]; Poly bag, day 2) was 4.8, the “Skin Color ratings” value (avocados [2]; Poly bag, day 3) was 4.8 and the “Skin Color ratings” value (avocados [2]; Poly bag, day 4) was 4.9. For the same compound, the “effect of combining MAP bag and 1-MCP on pulp firmness” value (avocados [3]; MAP bags and 900 ppb 1-MCP, days 1-4) was “synergistic benefit to pulp firmness”, the “pulp firmness compared with other treatments” value (avocados [3]; MAP bags and 900 ppb of 1-MCP, days 1-4) was “best pulp firmness” and the “Pulp Firmness Difference from the Control Sample” value (“Pulp Firmness Difference” below) (avocados [3]; MAP bag, day 0) was 13.8 Ns. The “Pulp Firmness Difference” value (avocados [3]; MAP bag, day 1) was 30.4 Ns, the “Pulp Firmness Difference” value (avocados [3]; MAP bag, day 2) was 14.6 Ns and the “Pulp Firmness Difference” value (avocados [3]; MAP bag, day 3) was 21.4 Ns. For the same compound, the “Pulp Firmness Difference” value (avocados [3]; MAP bag, day 4) was 14.8 Ns, the “Pulp Firmness Difference” value (avocados [3]; Poly bag, day 0) was 0.1 Ns and the “Pulp Firmness Difference” value (avocados [3]; Poly bag, day 1) was 1.1 Ns. The “Pulp Firmness Difference” value (avocados [3]; Poly bag, day 2) was 0.6 Ns, the “Pulp Firmness Difference” value (avocados [3]; Poly bag, day 3) was 1.4 Ns and the “Pulp Firmness Difference” value (avocados [3]; Poly bag, day 4) was 0.1 Ns. For the same compound, the “Pulp Firmness - Difference from Untreated Control” value (“Pulp Firmness - Difference” for short) (avocados [4]; MAP bag, 300 ppb MCP, day 0) was 90 Ns, the “Pulp Firmness - Difference” value (avocados [4]; MAP bag, 300 ppb MCP, day 1) was 22 Ns and the “Pulp Firmness - Difference” value (avocados [4]; MAP bag, 300 ppb MCP, day 2) was 36 Ns. The “Pulp Firmness - Difference” value (avocados [4]; MAP bag, 300 ppb MCP, day 3) was 41.3 Ns, the “Pulp Firmness - Difference” value (avocados [4]; MAP bag, 300 ppb MCP, day 4) was 33 Ns and the “Pulp Firmness - Difference” value (avocados [4]; MAP bag, 600 ppb MCP, day 0) was 84 Ns. For the same compound, the “Pulp Firmness - Difference” value (avocados [4]; MAP bag, 600 ppb MCP, day 1) was 46 Ns, the “Pulp Firmness - Difference” value (avocados [4]; MAP bag, 600 ppb MCP, day 2) was 39 Ns and the “Pulp Firmness - Difference” value (avocados [4]; MAP bag, 600 ppb MCP, day 3) was 59.3 Ns. For the same compound, the “Pulp Firmness - Difference” value (avocados [4]; MAP bag, 600 ppb MCP, day 4) was 40 Ns, the “Pulp Firmness - Difference” value (avocados [4]; MAP bag, 900 ppb MCP, day 0) was 93 Ns and the “Pulp Firmness - Difference” value (avocados [4]; MAP bag, 900 ppb MCP, day 1) was 61 Ns. The “Pulp Firmness - Difference” value (avocados [4]; MAP bag, 900 ppb MCP, day 2) was 52 Ns, the “Pulp Firmness - Difference” value (avocados [4]; MAP bag, 900 ppb MCP, day 3) was 49.3 Ns and the “Pulp Firmness - Difference” value (avocados [4]; MAP bag, 900 ppb MCP, day 4) was 46 Ns. The “improvement over the untreated control (pulp firmness)” value (avocados [4]; MCP alone at 600 ppb, day 3) was 4 lbf, the “Pulp Firmness - Difference” value (avocados [4]; No Bag, 600 ppb MCP, day 0) was 29 Ns and the “Pulp Firmness - Difference” value (avocados [4]; No Bag, 600 ppb MCP, day 1) was 14 Ns. For the same compound, the “Pulp Firmness - Difference” value (avocados [4]; No Bag, 600 ppb MCP, day 2) was 10 Ns, the “Pulp Firmness - Difference” value (avocados [4]; No Bag, 600 ppb MCP, day 3) was 17.3 Ns and the “Pulp Firmness - Difference” value (avocados [4]; No Bag, 600 ppb MCP, day 4) was 12 Ns.
